According to patent US20260263361A1, “CANNABIDIOL AQUEOUS SOLUTION COMPOSITION AND CANNABIDIOL-CONTAINING PHARMACEUTICAL PREPARATION COMPRISING SAME” (priority 2023, published 2026):

Key:
[1] = Long-term stability of CBD-containing film: CBD content by HPLC after storage under harsh conditions; type: physicochemical
Procedure: The long-term stability of the orally disintegrating film of Example 2, having the composition of Table 6, was evaluated.
For comparison, the long-term stability of CBD in the orally disintegrating film containing CBD-prepared according to the composition shown in Table 7 and corresponding to Korean Patent Application No. 10-2019-0097649—was evaluated as Comparative Example 2.
Immediately after film formation, the films were packaged in airtight containers and left under harsh conditions for 0, 24, and 72 hours, after which the CBD content was analyzed by high-performance liquid chromatography (HPLC).
Additionally, further experiments were conducted to increase the stability of the orally disintegrating film of the current Example 2.

[2] = Primary solubilizer mixed with an additional solubilizer, extent of CBD dissolution observed; type: physicochemical
Procedure: Due to the compatibility required between ingredients for use in the CBD aqueous solution formulation, additional solubilizerswere mixed with the selected primary components, and the extent of CBD dissolution was evaluated.

SMILES | Decrease (24 hrs, %) ([1]; 24 hrs vs 0 hr) [%] | CBD content 0 hr ([1]; airtight container, 0 hr, HPLC) | CBD content 24 hr ([1]; airtight container, 24 hr, HPLC) | state of CBD in aqueous solution (FIG. 1) [2]
C=C(C)[C@@H]1CCC(C)=C[C@H]1c1c(O)cc(CCCCC)cc1O [CBD isolate powder, 2-[(1R,6R)-3-methyl-6-(1-methylethenyl)-2-cyclohexen-1-yl]-5-pentyl-1,3-benzenediol] | 0.28 | 103.58 | 103.86 | –
OCC(O)CO [Glycerin] | – | – | – | not dissolved and appeared as precipitate or crystals
